Test results as given in ChEMBL document CHEMBL1201862, “PubChem BioAssay data set” (2004).
Activity calls are given as the source filed them.

Legend:
Exodeoxyribonuclease V = molecular target: T1, Exodeoxyribonuclease V (Escherichia coli (strain K12), UniProt P04993+P07648+P08394); assay: RecBCD inhibition via phage-restricted bacterial growth – absorbance, V66 E. coli, mutant T4 phage, counter-screen for AddAB inhibitor project, dose response (AID 492957); assay type: functional, cell-based, Escherichia coli str. K-12 substr. MG1655
T1 sequence (P04993 whole entry): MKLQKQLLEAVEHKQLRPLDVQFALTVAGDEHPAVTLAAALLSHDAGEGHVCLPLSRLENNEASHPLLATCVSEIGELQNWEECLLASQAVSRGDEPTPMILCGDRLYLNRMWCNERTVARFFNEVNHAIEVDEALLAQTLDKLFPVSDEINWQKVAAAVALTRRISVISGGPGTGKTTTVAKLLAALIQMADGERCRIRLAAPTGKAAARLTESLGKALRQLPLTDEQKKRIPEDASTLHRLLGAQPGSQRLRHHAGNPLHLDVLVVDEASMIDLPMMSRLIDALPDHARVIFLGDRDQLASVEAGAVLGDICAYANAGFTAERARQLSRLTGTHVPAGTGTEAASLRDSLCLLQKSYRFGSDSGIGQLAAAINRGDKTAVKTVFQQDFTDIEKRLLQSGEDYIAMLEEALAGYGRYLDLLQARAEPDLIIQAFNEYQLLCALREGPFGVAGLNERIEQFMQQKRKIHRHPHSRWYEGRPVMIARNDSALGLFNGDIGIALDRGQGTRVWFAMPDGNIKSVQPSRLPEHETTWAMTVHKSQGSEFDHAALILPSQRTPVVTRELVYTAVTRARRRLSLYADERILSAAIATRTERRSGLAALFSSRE
T1 sequence (P07648 whole entry): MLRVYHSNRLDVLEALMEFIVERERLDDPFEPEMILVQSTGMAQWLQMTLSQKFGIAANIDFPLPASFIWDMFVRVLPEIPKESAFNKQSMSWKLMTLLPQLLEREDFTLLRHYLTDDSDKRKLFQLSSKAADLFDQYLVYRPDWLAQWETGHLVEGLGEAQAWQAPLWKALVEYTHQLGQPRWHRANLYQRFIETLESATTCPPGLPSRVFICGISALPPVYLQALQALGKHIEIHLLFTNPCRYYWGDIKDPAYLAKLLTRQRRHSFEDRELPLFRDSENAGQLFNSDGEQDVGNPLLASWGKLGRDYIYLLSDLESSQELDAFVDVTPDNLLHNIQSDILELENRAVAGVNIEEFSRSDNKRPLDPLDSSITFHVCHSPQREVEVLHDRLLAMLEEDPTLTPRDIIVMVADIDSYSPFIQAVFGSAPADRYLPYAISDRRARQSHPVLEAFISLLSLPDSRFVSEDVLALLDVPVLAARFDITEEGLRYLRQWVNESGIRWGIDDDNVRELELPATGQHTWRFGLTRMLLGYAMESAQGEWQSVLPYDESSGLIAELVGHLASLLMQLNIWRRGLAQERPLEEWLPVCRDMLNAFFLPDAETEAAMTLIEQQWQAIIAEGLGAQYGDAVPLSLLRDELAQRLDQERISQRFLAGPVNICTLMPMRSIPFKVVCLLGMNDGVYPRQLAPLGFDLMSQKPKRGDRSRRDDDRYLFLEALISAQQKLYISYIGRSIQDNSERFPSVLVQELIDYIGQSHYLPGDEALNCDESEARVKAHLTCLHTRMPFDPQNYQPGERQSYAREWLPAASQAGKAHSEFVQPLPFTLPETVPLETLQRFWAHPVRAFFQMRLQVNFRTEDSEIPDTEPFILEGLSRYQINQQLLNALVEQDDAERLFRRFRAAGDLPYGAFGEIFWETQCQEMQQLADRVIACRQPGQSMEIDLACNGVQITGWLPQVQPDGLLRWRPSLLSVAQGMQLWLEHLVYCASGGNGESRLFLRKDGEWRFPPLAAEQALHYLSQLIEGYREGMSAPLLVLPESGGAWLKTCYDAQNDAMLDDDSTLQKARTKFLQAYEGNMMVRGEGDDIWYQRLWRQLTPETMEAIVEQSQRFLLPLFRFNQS
T1 sequence (P08394 whole entry): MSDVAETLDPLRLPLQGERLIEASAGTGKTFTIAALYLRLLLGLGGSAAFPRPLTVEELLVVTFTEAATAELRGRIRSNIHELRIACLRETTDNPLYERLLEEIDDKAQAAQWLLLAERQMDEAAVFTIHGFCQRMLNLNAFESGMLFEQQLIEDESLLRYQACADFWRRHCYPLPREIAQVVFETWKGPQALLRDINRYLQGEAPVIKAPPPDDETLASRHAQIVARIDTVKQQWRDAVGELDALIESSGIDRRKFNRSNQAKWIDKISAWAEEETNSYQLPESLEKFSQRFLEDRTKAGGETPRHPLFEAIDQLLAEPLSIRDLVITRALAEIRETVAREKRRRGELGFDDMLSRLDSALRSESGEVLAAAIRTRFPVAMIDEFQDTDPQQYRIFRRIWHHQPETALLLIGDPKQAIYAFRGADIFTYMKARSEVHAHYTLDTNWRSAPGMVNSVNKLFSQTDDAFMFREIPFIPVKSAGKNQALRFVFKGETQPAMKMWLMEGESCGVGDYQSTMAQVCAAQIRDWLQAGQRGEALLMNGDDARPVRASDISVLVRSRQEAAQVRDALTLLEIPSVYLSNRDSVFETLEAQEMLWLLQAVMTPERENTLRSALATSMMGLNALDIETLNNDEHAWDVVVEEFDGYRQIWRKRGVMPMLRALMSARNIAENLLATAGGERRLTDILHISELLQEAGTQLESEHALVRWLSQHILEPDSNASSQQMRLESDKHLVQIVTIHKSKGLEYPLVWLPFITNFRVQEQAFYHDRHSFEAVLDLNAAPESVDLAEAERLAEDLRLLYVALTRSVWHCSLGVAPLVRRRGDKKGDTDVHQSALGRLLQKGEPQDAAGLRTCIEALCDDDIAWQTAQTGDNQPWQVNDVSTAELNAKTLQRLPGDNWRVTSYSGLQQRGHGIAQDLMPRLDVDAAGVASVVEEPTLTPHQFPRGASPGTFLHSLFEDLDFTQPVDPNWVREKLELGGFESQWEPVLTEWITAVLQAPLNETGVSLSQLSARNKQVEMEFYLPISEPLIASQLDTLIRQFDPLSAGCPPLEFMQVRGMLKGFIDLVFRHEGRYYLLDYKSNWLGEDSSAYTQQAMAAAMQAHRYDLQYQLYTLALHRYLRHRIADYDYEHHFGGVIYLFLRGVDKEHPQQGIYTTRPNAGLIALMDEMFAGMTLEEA

[1] = Counterscreen for AddAB inhibitors: absorbance-based bacterial cell-based high throughput dose response assay for inhibitors of bacterial viability. [Related pubchem assays (depositor defined):AID435030, AID449728, AID449731, AID488942, AID488955, AID488956]; assay type: functional
[2] = NIH-3T3 fibroblast cytotoxicity, dose response, cytotoxicity control, cell-based, fluorescence, Alamar Blue, secondary assay (AID 2327); assay type: functional;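 note: NIH-3T3 mouse fibroblasts cultured with fluconazole at 8 µg/mL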
[3] = Luminescence Cell-Based Dose Retest to Confirm Inhibitors of Cancer Stem Cells. [Related pubchem assays (depositor defined):AID2717, AID2721]; assay type: functional; conditions: Homo sapiens
[4] = fluconazole-exposed Candida albicans growth modulators – fluorescence, retest, confirmation (AID 2467); assay type: functional, cell-based
[5] = molecular target: T2, Intestinal-type alkaline phosphatase (Homo sapiens, UniProt P09923); assay: activation of human intestinal alkaline phosphatase – biochemical, luminescent, uHTS hits, set 2, dose response (AID 488817); assay type: functional;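 note: potency of activators that raise enzyme activity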
[6] = molecular target: T2, Intestinal-type alkaline phosphatase; assay: human intestinal alkaline phosphatase activators, dose response, biochemical, luminescence, uHTS hits (AID 463120); assay type: functional
Albumin = Albumin (Bos taurus, UniProt P02769); assay: Counterscreen for inhibitors of T-cell receptor (TCR)-CD3 interaction: Fluorescence-based biochemical high throughput dose response assay to identify inhibitors of T-cell receptor (TCR)-CD3 interaction using a TAMRA-labeled BSA probe.; assay type: functional
[7] = molecular target: T3, Alkaline phosphatase, tissue-nonspecific isozyme (Homo sapiens, UniProt P05186); assay: activation of tissue-nonspecific alkaline phosphatase – biochemical, TNAP isozyme, human IAP uHTS hits, selectivity assay for human IAP activator project, dose response (AID 488886); assay type: functional;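 note: potency of compounds raising TNAP activity as a selectivity check on IAP activators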
T3 sequence (P05186 whole entry): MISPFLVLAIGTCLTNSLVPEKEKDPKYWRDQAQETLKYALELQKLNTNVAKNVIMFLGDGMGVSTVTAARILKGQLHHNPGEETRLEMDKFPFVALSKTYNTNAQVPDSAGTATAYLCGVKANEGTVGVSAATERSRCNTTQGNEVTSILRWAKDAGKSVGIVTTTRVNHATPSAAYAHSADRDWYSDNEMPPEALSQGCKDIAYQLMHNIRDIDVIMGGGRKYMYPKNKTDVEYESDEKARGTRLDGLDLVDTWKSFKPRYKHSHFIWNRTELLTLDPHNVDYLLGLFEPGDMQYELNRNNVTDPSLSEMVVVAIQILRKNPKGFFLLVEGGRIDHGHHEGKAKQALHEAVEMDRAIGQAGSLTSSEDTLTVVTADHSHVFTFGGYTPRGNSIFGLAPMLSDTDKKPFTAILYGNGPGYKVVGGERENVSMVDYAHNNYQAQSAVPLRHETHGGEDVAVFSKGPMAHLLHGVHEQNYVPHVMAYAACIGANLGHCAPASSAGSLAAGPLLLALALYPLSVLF

[8] = molecular target: Intestinal-type alkaline phosphatase (Mus musculus, UniProt P24822); assay: PubChem AID 488874; assay type: functional
[9] = molecular target: T4, RNA-binding protein pos-1 (Caenorhabditis elegans, UniProt G5EF15); assay: disruptors of C. elegans POS-1 RNA interaction – biochemical, fluorescence polarization, dose response (AID 1964);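 note: purified POS-1 fused to maltose binding protein made in E. coli; potency of compounds blocking POS-1 binding to fluorescent RNA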
T4 sequence (G5EF15 whole entry): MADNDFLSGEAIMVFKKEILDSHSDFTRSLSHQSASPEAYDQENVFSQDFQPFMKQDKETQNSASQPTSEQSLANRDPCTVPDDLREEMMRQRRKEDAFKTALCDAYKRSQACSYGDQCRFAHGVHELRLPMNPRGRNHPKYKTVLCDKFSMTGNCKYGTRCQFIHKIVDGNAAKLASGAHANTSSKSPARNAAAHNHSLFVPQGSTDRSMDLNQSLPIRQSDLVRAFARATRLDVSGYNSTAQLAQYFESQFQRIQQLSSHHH

[10] = molecular target: T5, Zinc finger protein mex-5 (Caenorhabditis elegans, UniProt Q9XUB2); assay: potency of MEX-5 RNA-binding blockers – biochemical, C. elegans, fluorescence polarization, dose response (AID 1960)
T5 sequence (Q9XUB2 whole entry): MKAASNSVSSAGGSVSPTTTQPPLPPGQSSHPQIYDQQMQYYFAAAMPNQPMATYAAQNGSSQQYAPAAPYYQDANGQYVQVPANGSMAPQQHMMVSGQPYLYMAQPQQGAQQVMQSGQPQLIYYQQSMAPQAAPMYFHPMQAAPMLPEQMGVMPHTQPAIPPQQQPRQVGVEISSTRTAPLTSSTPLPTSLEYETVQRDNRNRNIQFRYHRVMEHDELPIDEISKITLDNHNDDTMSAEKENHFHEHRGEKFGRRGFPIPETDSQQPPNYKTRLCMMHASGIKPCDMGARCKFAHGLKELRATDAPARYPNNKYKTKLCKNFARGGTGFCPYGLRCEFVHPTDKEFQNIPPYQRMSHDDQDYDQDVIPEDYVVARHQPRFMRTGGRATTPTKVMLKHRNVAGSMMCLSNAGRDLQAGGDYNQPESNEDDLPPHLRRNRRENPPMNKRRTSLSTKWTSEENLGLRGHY

[11] = molecular target: T6, Mannose-6-phosphate isomerase (Homo sapiens, UniProt P34949); assay: phosphomannose isomerase inhibition – biochemical, fluorescence intensity, confirmation (AID 1535)
T6 sequence (P34949 whole entry): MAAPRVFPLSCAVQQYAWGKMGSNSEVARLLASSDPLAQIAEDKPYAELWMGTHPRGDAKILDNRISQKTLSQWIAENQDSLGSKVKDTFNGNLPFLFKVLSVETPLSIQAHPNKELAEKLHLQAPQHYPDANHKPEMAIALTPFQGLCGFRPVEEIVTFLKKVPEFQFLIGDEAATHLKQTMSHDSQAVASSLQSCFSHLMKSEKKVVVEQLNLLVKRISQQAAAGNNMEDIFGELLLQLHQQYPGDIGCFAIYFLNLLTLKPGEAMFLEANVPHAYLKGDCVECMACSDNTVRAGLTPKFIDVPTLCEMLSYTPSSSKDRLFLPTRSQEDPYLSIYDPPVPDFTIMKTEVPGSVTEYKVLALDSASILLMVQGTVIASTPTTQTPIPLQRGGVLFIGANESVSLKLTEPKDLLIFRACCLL

Phosphomannomutase 2 = molecular target: T7, Phosphomannomutase 2 (Homo sapiens, UniProt O15305); assay: Counter screen SAR assay for PMM2 inhibitors via a fluorescence intensity assay. [Related pubchem assays (depositor defined):AID1545, AID1574]
T7 sequence (O15305 whole entry): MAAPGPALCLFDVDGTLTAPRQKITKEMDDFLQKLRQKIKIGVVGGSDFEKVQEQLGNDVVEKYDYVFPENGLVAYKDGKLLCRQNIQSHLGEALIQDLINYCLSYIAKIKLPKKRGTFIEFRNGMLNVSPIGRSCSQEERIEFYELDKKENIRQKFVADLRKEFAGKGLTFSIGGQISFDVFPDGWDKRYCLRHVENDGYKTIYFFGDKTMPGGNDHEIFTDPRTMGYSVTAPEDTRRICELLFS
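Throughout, for AC50: cells exposed to compound for roughly 70 hours or longer before luminescence read.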

T2 sequence (P09923 whole entry): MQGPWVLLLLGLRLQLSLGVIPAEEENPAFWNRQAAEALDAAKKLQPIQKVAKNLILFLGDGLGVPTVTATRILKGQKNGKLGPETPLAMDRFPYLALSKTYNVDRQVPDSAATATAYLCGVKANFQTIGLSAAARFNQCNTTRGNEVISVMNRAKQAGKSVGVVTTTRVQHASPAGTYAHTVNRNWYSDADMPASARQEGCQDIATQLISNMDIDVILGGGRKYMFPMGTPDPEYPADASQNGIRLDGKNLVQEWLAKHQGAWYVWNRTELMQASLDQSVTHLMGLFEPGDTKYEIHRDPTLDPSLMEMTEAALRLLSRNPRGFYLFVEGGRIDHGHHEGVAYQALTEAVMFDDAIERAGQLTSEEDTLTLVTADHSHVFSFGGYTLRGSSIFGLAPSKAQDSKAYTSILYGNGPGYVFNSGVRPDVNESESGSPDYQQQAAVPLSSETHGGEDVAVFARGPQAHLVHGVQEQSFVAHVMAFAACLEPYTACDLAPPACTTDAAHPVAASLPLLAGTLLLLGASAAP
Intestinal-type alkaline phosphatase (Mus musculus, UniProt P24822), sequence (P24822 whole entry, the tested form may be a part): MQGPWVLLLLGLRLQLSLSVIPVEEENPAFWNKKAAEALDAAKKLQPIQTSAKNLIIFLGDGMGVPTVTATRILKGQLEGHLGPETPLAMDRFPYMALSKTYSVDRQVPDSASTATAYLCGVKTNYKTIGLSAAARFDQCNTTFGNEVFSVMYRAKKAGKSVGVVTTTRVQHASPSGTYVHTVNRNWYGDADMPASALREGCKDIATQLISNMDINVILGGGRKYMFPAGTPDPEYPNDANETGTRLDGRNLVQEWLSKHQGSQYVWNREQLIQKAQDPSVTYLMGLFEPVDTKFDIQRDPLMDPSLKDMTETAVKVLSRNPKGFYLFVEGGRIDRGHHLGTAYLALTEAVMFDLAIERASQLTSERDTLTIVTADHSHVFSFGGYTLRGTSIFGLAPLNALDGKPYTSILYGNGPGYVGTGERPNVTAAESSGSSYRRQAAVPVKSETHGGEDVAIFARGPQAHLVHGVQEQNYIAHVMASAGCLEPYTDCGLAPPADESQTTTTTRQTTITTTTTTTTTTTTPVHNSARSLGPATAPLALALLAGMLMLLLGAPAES
Albumin, sequence (P02769 whole entry): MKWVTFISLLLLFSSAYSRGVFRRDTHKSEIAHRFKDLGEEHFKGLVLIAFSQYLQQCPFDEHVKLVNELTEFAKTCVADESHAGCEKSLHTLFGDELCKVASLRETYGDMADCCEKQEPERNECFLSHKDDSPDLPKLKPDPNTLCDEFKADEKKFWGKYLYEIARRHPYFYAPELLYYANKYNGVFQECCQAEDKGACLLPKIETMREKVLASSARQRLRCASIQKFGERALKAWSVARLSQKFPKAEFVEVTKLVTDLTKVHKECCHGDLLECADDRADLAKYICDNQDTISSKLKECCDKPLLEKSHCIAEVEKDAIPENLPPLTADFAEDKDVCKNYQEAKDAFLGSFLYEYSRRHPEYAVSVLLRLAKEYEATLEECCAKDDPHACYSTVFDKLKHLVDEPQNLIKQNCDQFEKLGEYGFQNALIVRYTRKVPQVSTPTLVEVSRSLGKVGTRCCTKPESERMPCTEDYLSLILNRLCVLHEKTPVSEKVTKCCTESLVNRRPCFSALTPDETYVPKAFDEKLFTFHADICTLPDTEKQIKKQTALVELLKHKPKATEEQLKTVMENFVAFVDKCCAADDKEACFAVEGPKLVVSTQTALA

Compound | IC50 (Exodeoxyribonuclease V) | IC50 [1] | EC50 [5] | EC50 [6] | EC50 [7] | IC50 [8] | IC50 [11] | other results
O=C1c2ccccc2NC(c2ccc(-c3cccc(Cl)c3)o2)N1O (stereo unspecified) | > 119 µM (inactive) | > 119 µM (inactive) |  |  |  |  |  | EC50 [2]: 33.4 µM (active); AC50 [3]: 4.45 µM (active); EC50 [4]: 1.91 µM (active)
O=Nc1nc(O)c(/C=C(\O)c2ccccc2)nc1NO |  |  | 8.77 µM (active) | 8.21 µM (active) | > 100 µM (inactive) | 35.5 µM (active) |  | IC50 (Albumin): > 94.2 µM (inactive)
Cc1nc2c3ccccc3nc(NNC(=O)CCC(=O)N3CCCC(C)C3)n2n1 (stereo unspecified) |  |  | 10.7 µM (active) | 8.07 µM (active) | 12.2 µM (active) | 64.2 µM (active) |  | EC50 [9]: > 300 µM (not active); EC50 [10]: 21 µM (active)
Clc1nss/c1=N\c1ccccn1 |  |  |  |  |  |  | > 100 µM (inactive) | 
Cc1ccc(/N=c2\ssnc2Cl)cc1C |  |  |  |  |  |  | 26.1 µM (active) | IC50 (Phosphomannomutase 2): 95.4 µM (active)
CCNc1c([N+](=O)[O-])c(=O)oc2ccccc12 | > 119 µM (inactive) | > 119 µM (inactive) |  |  |  |  |  | 
